Experiments:
[1] = target: 5-hydroxytryptamine receptor 1A (Homo sapiens, UniProt P08908); assay: GPCRScan assay: inhibition of 5-HT1A; set-up: radioligand conc. used [nm] 0.5 – 1.0, parental cells stable CHO
[2] = target: GABA-A receptor; anion channel; assay: GPCRScan assay: inhibition of GABAA/BZP; assay type: protein-complex assay, Rattus norvegicus; set-up: radioligand conc. used [nm] 0.6 – 4.0, parental cells brain tissue
[3] = target: 5-hydroxytryptamine receptor 1A (Homo sapiens) (UniProt P08908); conditions: Compound concentration 10.0 uM
[4] = target: 5-hydroxytryptamine receptor 1B (Homo sapiens) (UniProt P28222); conditions: Compound concentration 10.0 uM
[5] = target: 5-hydroxytryptamine receptor 1D (Homo sapiens) (UniProt P28221); conditions: Compound concentration 10.0 uM
[6] = target: 5-hydroxytryptamine receptor 1E (Homo sapiens) (UniProt P28566); conditions: Compound concentration 10.0 uM
[7] = target: 5-hydroxytryptamine receptor 2A (Homo sapiens) (UniProt P28223); conditions: Compound concentration 10.0 uM
[8] = target: 5-hydroxytryptamine receptor 2B (Homo sapiens) (UniProt P41595); conditions: Compound concentration 10.0 uM
[9] = target: 5-hydroxytryptamine receptor 2C (Homo sapiens) (UniProt P28335); conditions: Compound concentration 10.0 uM
[10] = target: 5-hydroxytryptamine receptor 3A (Homo sapiens) (UniProt P46098); conditions: Compound concentration 10.0 uM
[11] = target: 5-hydroxytryptamine receptor 5A (Homo sapiens) (UniProt P47898); conditions: Compound concentration 10.0 uM
[12] = target: 5-hydroxytryptamine receptor 6 (Homo sapiens) (UniProt P50406); conditions: Compound concentration 10.0 uM
[13] = target: 5-hydroxytryptamine receptor 7 (Homo sapiens) (UniProt P34969); conditions: Compound concentration 10.0 uM
[14] = target: D(1A) dopamine receptor (Homo sapiens) (UniProt P21728); conditions: Compound concentration 10.0 uM
[15] = target: D(2) dopamine receptor (Homo sapiens) (UniProt P14416); conditions: Compound concentration 10.0 uM
[16] = target: D(3) dopamine receptor (Homo sapiens) (UniProt P35462); conditions: Compound concentration 10.0 uM
[17] = target: D(4) dopamine receptor (Homo sapiens) (UniProt P21917); conditions: Compound concentration 10.0 uM
[18] = target: D(1B) dopamine receptor (Homo sapiens) (UniProt P21918); conditions: Compound concentration 10.0 uM
[19] = target: Sodium-dependent noradrenaline transporter (Homo sapiens) (UniProt P23975); conditions: Compound concentration 10.0 uM
[20] = target: Sodium-dependent dopamine transporter (Homo sapiens) (UniProt Q01959); conditions: Compound concentration 10.0 uM
[21] = target: Mu-type opioid receptor (Homo sapiens) (UniProt P35372); conditions: Compound concentration 10.0 uM
[22] = target: Delta-type opioid receptor (Homo sapiens) (UniProt P41143); conditions: Compound concentration 10.0 uM
[23] = target: Kappa-type opioid receptor (Homo sapiens) (UniProt P41145); conditions: Compound concentration 10.0 uM
[24] = target: T1, GABA-A receptor; anion channel (Rattus norvegicus) (UniProt O09028+P15431+P18506+P18508+P19969+P20236+P23574+P23576+P28471+P28473+P30191+P62813+P63079+P63138+Q91ZM7+Q9ES14); conditions: Compound concentration 10.0 uM
[25] = target: Histamine H1 receptor (Homo sapiens) (UniProt P35367); conditions: Compound concentration 10.0 uM
[26] = target: Histamine H2 receptor (Homo sapiens) (UniProt P25021); conditions: Compound concentration 10.0 uM
[27] = target: Histamine H3 receptor (Homo sapiens) (UniProt Q9Y5N1); conditions: Compound concentration 10.0 uM
[28] = target: Histamine H4 receptor (Homo sapiens) (UniProt Q9H3N8); conditions: Compound concentration 10.0 uM
[29] = target: Alpha-1A adrenergic receptor (Homo sapiens) (UniProt P35348); conditions: Compound concentration 10.0 uM
[30] = target: Alpha-1B adrenergic receptor (Homo sapiens) (UniProt P35368); conditions: Compound concentration 10.0 uM
[31] = target: Alpha-2A adrenergic receptor (Homo sapiens) (UniProt P08913); conditions: Compound concentration 10.0 uM
[32] = target: Alpha-2B adrenergic receptor (Homo sapiens) (UniProt P18089); conditions: Compound concentration 10.0 uM
[33] = target: Alpha-2C adrenergic receptor (Homo sapiens) (UniProt P18825); conditions: Compound concentration 10.0 uM
[34] = target: Beta-2 adrenergic receptor (Homo sapiens) (UniProt P07550); conditions: Compound concentration 10.0 uM
[35] = target: Muscarinic acetylcholine receptor M1 (Homo sapiens) (UniProt P11229); conditions: Compound concentration 10.0 uM
[36] = target: Muscarinic acetylcholine receptor M2 (Homo sapiens) (UniProt P08172); conditions: Compound concentration 10.0 uM
[37] = target: Muscarinic acetylcholine receptor M5 (Homo sapiens) (UniProt P08912); conditions: Compound concentration 10.0 uM
[38] = target: Beta-3 adrenergic receptor (Homo sapiens) (UniProt P13945); conditions: Compound concentration 10.0 uM
[39] = target: T1, GABA-A receptor; anion channel (Rattus norvegicus); conditions: Compound concentration 10.0 uM; remark: listed apart in the source
Rattus norvegicus = species: Rattus norvegicus; conditions: Compound concentration 10.0 uM
[40] = target: Alpha-1D adrenergic receptor (Homo sapiens) (UniProt P25100); conditions: Compound concentration 10.0 uM
[41] = target: Sigma intracellular receptor 2 (Homo sapiens) (UniProt Q5BJF2); conditions: Compound concentration 10.0 uM
[42] = target: Sigma non-opioid intracellular receptor 1 (Homo sapiens) (UniProt Q99720); conditions: Compound concentration 10.0 uM
D(4) dopamine receptor = D(4) dopamine receptor (Homo sapiens, UniProt P21917); assay: GPCRScan assay: inhibition of D4; set-up: radioligand conc. used [nm] 0.6 – 1.7, parental cells Stable HEK
[43] = target: Oxidized purine nucleoside triphosphate hydrolase (Homo sapiens, UniProt P36639); assay: PPiLight Biochemical Assay
[44] = target: Muscarinic acetylcholine receptor M3 (Homo sapiens) (UniProt P20309); conditions: Compound concentration 10.0 uM
[45] = target: Muscarinic acetylcholine receptor M4 (Homo sapiens) (UniProt P08173); conditions: Compound concentration 10.0 uM

Chain of Muscarinic acetylcholine receptor M5 (Homo sapiens) (P08912 whole entry): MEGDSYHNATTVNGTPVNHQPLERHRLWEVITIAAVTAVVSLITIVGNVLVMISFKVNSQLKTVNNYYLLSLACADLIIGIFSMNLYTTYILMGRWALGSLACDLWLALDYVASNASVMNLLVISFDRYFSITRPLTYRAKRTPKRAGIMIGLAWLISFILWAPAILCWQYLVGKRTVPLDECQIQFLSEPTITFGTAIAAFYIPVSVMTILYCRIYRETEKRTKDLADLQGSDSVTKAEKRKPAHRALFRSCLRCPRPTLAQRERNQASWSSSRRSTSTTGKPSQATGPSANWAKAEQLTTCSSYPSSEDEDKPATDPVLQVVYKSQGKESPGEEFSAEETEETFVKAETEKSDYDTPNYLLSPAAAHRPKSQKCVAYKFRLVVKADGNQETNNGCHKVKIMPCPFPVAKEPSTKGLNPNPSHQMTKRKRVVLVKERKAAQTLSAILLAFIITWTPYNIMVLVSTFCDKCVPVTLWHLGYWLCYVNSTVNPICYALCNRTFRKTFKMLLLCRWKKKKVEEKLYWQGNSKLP
Chain of Sigma non-opioid intracellular receptor 1 (Homo sapiens) (Q99720 whole entry): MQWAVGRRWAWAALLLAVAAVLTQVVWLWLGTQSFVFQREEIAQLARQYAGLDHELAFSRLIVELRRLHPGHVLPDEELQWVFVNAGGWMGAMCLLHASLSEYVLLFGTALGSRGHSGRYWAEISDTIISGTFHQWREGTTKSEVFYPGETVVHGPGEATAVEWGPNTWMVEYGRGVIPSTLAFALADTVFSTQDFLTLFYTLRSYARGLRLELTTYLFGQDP
Chain of 5-hydroxytryptamine receptor 3A (Homo sapiens) (P46098 whole entry): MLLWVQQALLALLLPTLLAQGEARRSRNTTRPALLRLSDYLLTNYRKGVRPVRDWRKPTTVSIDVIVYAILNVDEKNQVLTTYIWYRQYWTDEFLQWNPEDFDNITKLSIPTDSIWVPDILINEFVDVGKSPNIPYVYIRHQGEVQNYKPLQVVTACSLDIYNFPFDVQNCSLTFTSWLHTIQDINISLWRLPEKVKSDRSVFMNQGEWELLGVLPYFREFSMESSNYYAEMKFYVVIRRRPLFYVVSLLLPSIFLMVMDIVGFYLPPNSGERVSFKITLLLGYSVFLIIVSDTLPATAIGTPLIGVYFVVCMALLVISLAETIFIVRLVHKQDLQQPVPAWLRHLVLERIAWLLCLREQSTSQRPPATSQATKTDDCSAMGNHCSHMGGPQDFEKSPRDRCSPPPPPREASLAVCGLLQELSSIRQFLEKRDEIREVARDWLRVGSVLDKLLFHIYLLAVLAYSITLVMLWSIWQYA
Chain of 5-hydroxytryptamine receptor 2A (Homo sapiens) (P28223 whole entry): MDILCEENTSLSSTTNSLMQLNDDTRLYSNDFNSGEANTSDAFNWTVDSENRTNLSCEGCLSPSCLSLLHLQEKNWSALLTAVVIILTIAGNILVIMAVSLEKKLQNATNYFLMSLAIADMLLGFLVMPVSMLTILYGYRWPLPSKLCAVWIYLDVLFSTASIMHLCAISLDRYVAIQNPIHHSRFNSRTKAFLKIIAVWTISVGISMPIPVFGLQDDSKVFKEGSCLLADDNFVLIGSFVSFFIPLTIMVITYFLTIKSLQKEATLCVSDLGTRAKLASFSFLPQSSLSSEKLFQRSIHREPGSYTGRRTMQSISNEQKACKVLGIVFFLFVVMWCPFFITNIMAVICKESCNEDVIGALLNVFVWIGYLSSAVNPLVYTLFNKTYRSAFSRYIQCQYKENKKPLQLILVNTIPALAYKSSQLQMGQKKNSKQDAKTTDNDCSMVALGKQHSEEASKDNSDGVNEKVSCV
Chain of 5-hydroxytryptamine receptor 1E (Homo sapiens) (P28566 whole entry): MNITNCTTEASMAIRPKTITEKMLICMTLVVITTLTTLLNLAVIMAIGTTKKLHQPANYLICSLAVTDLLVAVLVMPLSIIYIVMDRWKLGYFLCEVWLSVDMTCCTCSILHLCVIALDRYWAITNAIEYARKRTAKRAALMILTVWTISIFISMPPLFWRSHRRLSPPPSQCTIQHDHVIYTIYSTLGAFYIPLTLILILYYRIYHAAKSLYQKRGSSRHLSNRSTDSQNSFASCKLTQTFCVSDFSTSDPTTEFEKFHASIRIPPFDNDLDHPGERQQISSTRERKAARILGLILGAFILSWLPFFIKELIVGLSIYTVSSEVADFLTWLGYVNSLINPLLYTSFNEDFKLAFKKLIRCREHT
Chain of Alpha-2B adrenergic receptor (Homo sapiens) (P18089 whole entry): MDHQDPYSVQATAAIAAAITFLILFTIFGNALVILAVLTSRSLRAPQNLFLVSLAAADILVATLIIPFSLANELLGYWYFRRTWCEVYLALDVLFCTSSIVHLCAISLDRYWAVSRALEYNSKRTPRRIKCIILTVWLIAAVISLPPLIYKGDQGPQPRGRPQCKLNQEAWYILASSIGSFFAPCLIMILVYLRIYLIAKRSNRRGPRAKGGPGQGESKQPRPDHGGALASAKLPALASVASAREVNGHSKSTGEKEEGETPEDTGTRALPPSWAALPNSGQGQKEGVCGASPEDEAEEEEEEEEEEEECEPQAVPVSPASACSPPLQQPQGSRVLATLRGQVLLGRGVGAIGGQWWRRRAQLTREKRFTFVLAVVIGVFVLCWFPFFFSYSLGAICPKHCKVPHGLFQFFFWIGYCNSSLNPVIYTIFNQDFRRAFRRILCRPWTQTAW
Chain of Sodium-dependent noradrenaline transporter (Homo sapiens) (P23975 whole entry): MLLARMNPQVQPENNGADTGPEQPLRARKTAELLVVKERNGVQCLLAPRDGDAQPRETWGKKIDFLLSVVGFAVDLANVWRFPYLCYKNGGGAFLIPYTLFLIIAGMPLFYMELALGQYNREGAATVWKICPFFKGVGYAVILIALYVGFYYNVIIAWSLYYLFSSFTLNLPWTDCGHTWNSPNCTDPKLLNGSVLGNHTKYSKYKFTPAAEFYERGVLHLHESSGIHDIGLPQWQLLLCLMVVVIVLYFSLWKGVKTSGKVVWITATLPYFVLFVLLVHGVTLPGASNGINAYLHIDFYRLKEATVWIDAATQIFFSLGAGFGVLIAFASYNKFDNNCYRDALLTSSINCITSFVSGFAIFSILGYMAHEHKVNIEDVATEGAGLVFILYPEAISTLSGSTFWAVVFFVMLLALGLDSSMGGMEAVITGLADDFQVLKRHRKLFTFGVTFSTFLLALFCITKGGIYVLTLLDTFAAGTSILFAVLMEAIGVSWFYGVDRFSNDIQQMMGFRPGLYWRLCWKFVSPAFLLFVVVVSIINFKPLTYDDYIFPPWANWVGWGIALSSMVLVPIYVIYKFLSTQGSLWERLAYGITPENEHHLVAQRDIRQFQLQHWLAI
Chain of Kappa-type opioid receptor (Homo sapiens) (P41145 whole entry): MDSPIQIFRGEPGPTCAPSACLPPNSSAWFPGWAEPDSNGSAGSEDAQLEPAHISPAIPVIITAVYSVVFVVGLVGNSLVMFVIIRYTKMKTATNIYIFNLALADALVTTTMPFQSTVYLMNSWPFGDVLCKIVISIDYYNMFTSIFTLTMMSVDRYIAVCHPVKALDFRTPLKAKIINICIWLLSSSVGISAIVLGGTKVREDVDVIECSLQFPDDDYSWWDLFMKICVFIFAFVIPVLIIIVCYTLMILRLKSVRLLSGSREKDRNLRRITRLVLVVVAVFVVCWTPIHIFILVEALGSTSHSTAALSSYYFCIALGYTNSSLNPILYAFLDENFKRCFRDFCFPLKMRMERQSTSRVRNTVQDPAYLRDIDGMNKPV
Chain of D(4) dopamine receptor (P21917 whole entry): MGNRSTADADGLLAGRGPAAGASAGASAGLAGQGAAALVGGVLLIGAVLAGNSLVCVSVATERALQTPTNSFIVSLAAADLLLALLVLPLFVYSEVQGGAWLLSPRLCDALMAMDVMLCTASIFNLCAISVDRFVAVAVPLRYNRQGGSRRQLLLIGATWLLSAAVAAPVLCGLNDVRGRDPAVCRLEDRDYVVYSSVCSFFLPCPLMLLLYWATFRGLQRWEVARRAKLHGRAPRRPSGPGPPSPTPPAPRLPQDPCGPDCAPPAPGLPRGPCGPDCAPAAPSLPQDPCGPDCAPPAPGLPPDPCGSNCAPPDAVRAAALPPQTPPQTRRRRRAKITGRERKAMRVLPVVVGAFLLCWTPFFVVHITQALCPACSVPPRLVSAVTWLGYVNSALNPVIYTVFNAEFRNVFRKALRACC
Chain of D(4) dopamine receptor (Homo sapiens) (P21917 whole entry): as above
Chain of 5-hydroxytryptamine receptor 1B (Homo sapiens) (P28222 whole entry): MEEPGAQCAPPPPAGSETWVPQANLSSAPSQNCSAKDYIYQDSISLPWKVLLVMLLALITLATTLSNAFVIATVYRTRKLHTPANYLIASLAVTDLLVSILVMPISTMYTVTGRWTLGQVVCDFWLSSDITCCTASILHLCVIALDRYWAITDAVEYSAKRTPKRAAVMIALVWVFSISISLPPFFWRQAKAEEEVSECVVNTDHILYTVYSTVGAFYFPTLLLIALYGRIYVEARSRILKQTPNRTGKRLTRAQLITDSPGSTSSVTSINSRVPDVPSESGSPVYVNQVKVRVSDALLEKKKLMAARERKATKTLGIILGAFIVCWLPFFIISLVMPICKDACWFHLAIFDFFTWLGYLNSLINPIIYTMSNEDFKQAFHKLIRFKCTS
Chain of Beta-3 adrenergic receptor (Homo sapiens) (P13945 whole entry, looked up): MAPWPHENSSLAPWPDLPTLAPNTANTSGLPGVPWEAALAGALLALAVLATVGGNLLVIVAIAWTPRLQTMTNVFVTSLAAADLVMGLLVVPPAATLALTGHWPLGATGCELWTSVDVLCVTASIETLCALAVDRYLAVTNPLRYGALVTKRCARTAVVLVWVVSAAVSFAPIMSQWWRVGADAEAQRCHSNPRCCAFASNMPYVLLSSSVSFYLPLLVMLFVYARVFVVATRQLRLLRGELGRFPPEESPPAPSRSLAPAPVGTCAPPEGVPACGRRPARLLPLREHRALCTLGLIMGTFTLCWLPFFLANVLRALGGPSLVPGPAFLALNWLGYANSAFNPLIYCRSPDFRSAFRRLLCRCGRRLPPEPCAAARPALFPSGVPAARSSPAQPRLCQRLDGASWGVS

CCNC(=O)c1cc2c(N3CCOC[C@@H]3C)ccnc2[nH]1
Ki [1]: 10 µM
Ki [2]: 1.53 µM
inhibition [3]: 69.8%
inhibition [4]: -1.66%
inhibition [5]: -7.55%
inhibition [6]: 10.6%
inhibition [7]: -7.89%
inhibition [8]: 47.1%
inhibition [9]: -4.02%
inhibition [10]: -1.37%
inhibition [11]: -8.05%
inhibition [12]: -8.52%
inhibition [13]: -4.45%
inhibition [14]: 1.92%
inhibition [15]: 12.3%
inhibition [16]: -7.82%
inhibition [17]: -3.84%
inhibition [18]: 34.3%
inhibition [19]: 40.2%
inhibition [20]: 25.5%
inhibition [21]: 24.8%
inhibition [22]: -0.04%
inhibition [23]: 13.1%
inhibition [24]: 28.2%
inhibition [25]: 4.94%
inhibition [26]: 1.31%
inhibition [27]: 40.5%
inhibition [28]: 0.0286%
inhibition [29]: 1.88%
inhibition [30]: -2.4%
inhibition [31]: 18.1%
inhibition [32]: 34.4%
inhibition [33]: 3.16%
inhibition [34]: -6.09%
inhibition [35]: 21.7%
inhibition [36]: -1.26%
inhibition [37]: -4.95%
inhibition [38]: 14.3%
inhibition [39]: 57.3%
inhibition (Rattus norvegicus): 30.1%
inhibition [40]: 8.58%
inhibition [41]: 34.6%
inhibition [42]: 24.3%

CCNC(=O)c1cc2c(N3CCOC[C@@H]3C)ccnc2n1C
Ki (D(4) dopamine receptor; read-out: Ki): 0.736 µM
Ki (D(4) dopamine receptor; read-out: pKi (converted)): 0.708 µM
Ki [2]: 0.224 µM
pKi [2]: 6.72
IC50 [43]: > 20 µM (not active)
inhibition [3]: -1.88%
inhibition [4]: -8.46%
inhibition [5]: -0.31%
inhibition [6]: 9.36%
inhibition [7]: -1.68%
inhibition [8]: 2.79%
inhibition [9]: 46.2%
inhibition [10]: 18.6%
inhibition [12]: 31.9%
inhibition [13]: -1.21%
inhibition [14]: 14.2%
inhibition [15]: -1.89%
inhibition [16]: 12.1%
inhibition [17]: 77.6%
inhibition [19]: 5.35%
inhibition [21]: 0.08%
inhibition [22]: 2.73%
inhibition [23]: 14.6%
inhibition [24]: -1.39%
inhibition [25]: 26%
inhibition [26]: -3.91%
inhibition [27]: -6.16%
inhibition [28]: 5.51%
inhibition [29]: 3.94%
inhibition [30]: 5.71%
inhibition [31]: 16.9%
inhibition [32]: -2.44%
inhibition [33]: -1.28%
inhibition [34]: 27.3%
inhibition [35]: 11.9%
inhibition [36]: 7.19%
inhibition [44]: 38%
inhibition [45]: 5.75%
inhibition [37]: -0.9%
inhibition [38]: -9.19%
inhibition [39]: 84.2%
inhibition (Rattus norvegicus): 17.2%
inhibition [40]: -8.1%
inhibition [41]: 30.4%
inhibition [42]: 24.5%

— ChEMBL document CHEMBL4507271, “Data for DCP probe BAY-707” (2021)
